Experimental findings from ChEMBL document CHEMBL3600381, “Small-molecule phosphodiesterase probes: discovery of potent and selective CNS-penetrable quinazoline inhibitors of PDE1” (Medchemcomm, 2014) are described below.

The target in data set [1] is T1, Dual specificity calcium/calmodulin-dependent 3',5'-cyclic nucleotide phosphodiesterase 1B (Homo sapiens, UniProt Q01064). The experiment in a line: Inhibition of PDE1B (unknown origin).
Data set [2] deals with cAMP and cAMP-inhibited cGMP 3',5'-cyclic phosphodiesterase 10A (Homo sapiens, UniProt Q9Y233). The experiment in a line: Inhibition of PDE10A (unknown origin).
Chain of cAMP and cAMP-inhibited cGMP 3',5'-cyclic phosphodiesterase 10A (Q9Y233 whole entry): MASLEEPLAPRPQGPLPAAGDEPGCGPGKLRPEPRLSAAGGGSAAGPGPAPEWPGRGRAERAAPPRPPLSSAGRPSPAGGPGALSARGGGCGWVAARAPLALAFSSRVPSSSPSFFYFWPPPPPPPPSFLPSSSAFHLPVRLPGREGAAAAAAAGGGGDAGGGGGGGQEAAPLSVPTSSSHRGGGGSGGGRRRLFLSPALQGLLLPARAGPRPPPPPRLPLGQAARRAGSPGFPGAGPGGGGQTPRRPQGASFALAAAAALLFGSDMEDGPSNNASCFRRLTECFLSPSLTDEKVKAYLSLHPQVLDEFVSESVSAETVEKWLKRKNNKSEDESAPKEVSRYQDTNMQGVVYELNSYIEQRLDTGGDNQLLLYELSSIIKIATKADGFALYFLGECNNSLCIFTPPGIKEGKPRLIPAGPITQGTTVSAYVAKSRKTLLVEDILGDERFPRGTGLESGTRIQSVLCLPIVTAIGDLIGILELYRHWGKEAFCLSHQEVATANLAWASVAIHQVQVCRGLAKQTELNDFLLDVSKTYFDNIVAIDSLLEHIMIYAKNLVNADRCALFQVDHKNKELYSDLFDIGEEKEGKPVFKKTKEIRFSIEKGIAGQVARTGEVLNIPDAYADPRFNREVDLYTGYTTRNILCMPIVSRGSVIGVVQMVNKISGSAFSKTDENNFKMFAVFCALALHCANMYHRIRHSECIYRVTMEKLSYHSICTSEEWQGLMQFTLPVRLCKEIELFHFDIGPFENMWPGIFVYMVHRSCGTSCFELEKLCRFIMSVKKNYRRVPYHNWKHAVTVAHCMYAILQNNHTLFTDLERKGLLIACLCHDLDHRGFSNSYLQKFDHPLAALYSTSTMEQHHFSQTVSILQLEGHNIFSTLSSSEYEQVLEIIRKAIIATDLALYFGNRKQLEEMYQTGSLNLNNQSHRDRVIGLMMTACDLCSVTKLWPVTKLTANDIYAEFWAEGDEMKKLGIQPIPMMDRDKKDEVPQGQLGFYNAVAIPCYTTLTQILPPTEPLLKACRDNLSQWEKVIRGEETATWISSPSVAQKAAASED
The target in data set [3] is T1, Dual specificity calcium/calmodulin-dependent 3',5'-cyclic nucleotide phosphodiesterase 1B. In words: Inhibition of PDE1B (unknown origin) at 1 uM.
Data set [4] is described as follows: Tmax in mouse at 32 mg/kg, sc. In kind it is ADME, organism-based. As to conditions: in vivo.
Data set [5] in a line: Half life in mouse at 32 mg/kg, sc. In kind it is ADME, organism-based. The note with it: in vivo.
Data set [6] can be described thus: Fraction unbound in mouse at 32 mg/kg, sc. The note with it: in vivo. Format: ADME, organism-based.
Data set [7] relates to Nucleic Acid. In words: Ratio of drug uptake from blood to plasma in mouse at 32 mg/kg, sc. In kind it is ADME, organism-based. As to conditions: in vivo.
Data set [8] can be described thus: Tmax in rat at 10 mg/kg, sc. In kind it is ADME, organism-based. As to conditions: in vivo.
Data set [9] can be described thus: Half life in rat at 10 mg/kg, sc. As to conditions: in vivo. In kind it is ADME, organism-based.
Data set [10] is described as follows: Fraction unbound in rat at 10 mg/kg, sc. In kind it is ADME, organism-based. The note with it: in vivo.
Data set [11] in a line: Ratio of drug uptake from blood to plasma in rat at 10 mg/kg, sc. In kind it is ADME, organism-based. As to conditions: blood and plasma.
For data set [12], the system named is Nucleic Acid. In words: Ratio of drug level in CSF to unbound fraction in rat plasma at 10 mg/kg, sc. In kind it is ADME, organism-based. As to conditions: in vivo.
A short description of data set [13]: Cmax in rat at 50 mg/kg, po after 0.25 hrs. The note with it: in vivo. Further details: dose 50 mg/kg, route oral. Format: ADME, organism-based.
Data set [14] is described as follows: Terminal half life in rat at 50 mg/kg, po. In kind it is ADME, organism-based. The note with it: in vivo, read-out: beta t1/2 (converted).

As usually defined, the IC50 is the point on the concentration scale where inhibition reaches its midpoint. What is called inhibition is the change of the read-out against control, counted positive when it falls. The Tmax is the time at which the peak concentration occurs. By fraction unbound is commonly meant free concentration divided by total concentration. Higher therefore signals weak binding. Usually Cmax stands for the peak of the concentration-time curve.

T1 sequence (Q01064 whole entry): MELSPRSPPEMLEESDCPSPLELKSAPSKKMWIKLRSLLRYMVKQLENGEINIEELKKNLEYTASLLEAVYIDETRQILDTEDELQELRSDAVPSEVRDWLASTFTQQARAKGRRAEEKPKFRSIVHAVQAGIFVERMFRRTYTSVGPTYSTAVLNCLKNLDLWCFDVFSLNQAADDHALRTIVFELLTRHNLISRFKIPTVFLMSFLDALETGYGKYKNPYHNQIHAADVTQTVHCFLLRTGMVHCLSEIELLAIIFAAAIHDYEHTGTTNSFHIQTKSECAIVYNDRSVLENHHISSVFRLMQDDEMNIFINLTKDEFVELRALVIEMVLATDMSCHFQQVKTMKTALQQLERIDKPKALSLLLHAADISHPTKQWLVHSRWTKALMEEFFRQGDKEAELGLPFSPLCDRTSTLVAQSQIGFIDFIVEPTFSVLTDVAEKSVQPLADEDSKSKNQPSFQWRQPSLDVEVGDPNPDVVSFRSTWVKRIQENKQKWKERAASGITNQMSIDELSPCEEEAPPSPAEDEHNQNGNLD

Consider `COc1ccc2c(C3CCc4ccc(F)cc43)ncnc2c1OC` (stereo not drawn), for which, in [1], the IC50 came to 38 nM.

Take `COc1cc2cnnc(N3CC(O)CC(c4ccccc4)C3)c2cc1OC` (stereo not drawn): in data set [2], inhibition was half-maximal at 3 nM (IC50).

Turning to `COc1cc2ncnc(Cc3ccccc3)c2cc1OC`, the inhibition in data set [3] amounted to 0%.

On to `COc1ccc2c(C(C)c3cccc(Cl)c3)ncnc2c1OC` (stereo not drawn), for which the concentration for half-maximal inhibition (IC50) in data set [1] came out at 22 nM.

With `COc1ccc2c(N3C[C@H](C)C[C@H](C)C3)ccnc2c1OC`, the inhibition in [3] is 0%.

As for `COc1cc2ncnc(C3CCc4ccc(Cl)cc43)c2cc1OC` (stereo not drawn), the 50% inhibitory concentration (IC50) in data set [1] turned out to be 83 nM.

Turning to `COc1cc2ncnc(N3CC(O)CC(c4ccccc4)C3)c2cc1OC` (stereo not drawn), the midpoint of inhibition in data set [2], the IC50, lay at 3 nM.

`COc1ccc2c([C@@H]3CCc4ccc(Cl)cc43)nccc2c1OC`: the half-maximal inhibitory concentration (IC50) in [1] came out at 458 nM.

Take `COc1ccc2c(C3CCc4ccc(Br)cc43)ncnc2c1OC` (stereo not drawn): the IC50 in data set [1] was 8 nM.

For `COc1ccc2c(N3C[C@H](C)C[C@H](C)C3)ncnc2c1OC`, the IC50 in [1] came out at 70 nM.

With `COc1cc2c(N3C[C@H](C)C[C@H](C)C3)nncc2c(OC)c1OC`, the inhibition in data set [3] was 0%.

For the compound `COc1cc2c(N3C[C@H](C)C[C@H](C)C3)cnnc2c(OC)c1OC`, the inhibition in data set [3] came to 0%.

On to `CCC(CC)Nc1ncnc2c(OC)c(OC)c(OC)cc12`, for which the time to peak (Tmax) in data set [4] and in data set [8] was 15 min each time. Also, the half-life was 120 min in data set [5], 39.6 min in data set [9] and 306 min in data set [14]. Besides, the fraction unbound in data set [6] stood at 0.18; in data set [10] it was 0.1. For the same compound, the results for the Ratio in data set [7] and in data set [12] were 0.28 and 0.9, respectively. In data set [11], the blood plasma ratio is 0.4. The compound further registered a Cmax in data set [13] of 10.9 µM.

For `COc1cc2nncc(N3CC(O)CC(c4ccccc4)C3)c2cc1OC` (stereo not drawn), in data set [2], the half-maximal inhibitory concentration (IC50) is 1 nM.

Take `COc1ccc2c(C3CCc4ccc(Cl)cc43)ncnc2c1OC` (stereo not drawn): the IC50 in [1] came out at 4 nM.

On to `COc1cc2ncnc(Cc3cccc(Cl)c3)c2cc1OC`, for which the inhibition in [3] was 24%.

In the case of `COc1cc2ncnc(C(C)c3cccc(Cl)c3)c2cc1OC` (stereo not drawn), the concentration for half-maximal inhibition (IC50) in [1] came to 230 nM.

Consider `COc1ccc2c(N3C[C@H](C)C[C@H](C)C3)nccc2c1OC`, for which, in data set [3], the inhibition amounted to 0%.
